Source: ChEMBL document CHEMBL1128694, “Specific inhibition of poly(ADP-ribose) glycohydrolase by adenosine diphosphate (hydroxymethyl)pyrrolidinediol” (J Med Chem, 1995)

Experiments:
Details in all cases: Meleagris gallopavo
[1] = target: T1, ADP-ribosyltransferase (Homo sapiens) (UniProt P52961); experiment: Inhibition of ADP-ribosyltransferase 1 that catalyze ADP-ribosyltransferase was measured at 0 uM concentration
T1 sequence (whole entry): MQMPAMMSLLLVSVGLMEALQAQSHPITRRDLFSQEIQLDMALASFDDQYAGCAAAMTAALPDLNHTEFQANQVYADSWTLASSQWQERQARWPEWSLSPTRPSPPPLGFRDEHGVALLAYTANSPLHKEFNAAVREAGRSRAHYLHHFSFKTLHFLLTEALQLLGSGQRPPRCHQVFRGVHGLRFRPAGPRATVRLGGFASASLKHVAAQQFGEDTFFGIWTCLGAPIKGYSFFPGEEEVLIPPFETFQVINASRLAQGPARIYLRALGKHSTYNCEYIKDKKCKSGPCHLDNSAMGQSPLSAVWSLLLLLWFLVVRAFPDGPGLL

[2] = target: T1, ADP-ribosyltransferase (Homo sapiens); experiment: Inhibition of ADP-ribosyltransferase 1 that catalyze ADP-ribosyltransferase was measured at 100 uM concentration
[3] = target: T1, ADP-ribosyltransferase (Homo sapiens); experiment: Inhibition of ADP-ribosyltransferase 1 that catalyze ADP-ribosyltransferase was measured at 1000 uM concentration

- Activity [1]: 0.06 units/assay
- Activity [2]: 0.07 units/assay
- Activity [3]: 0.05 units/assay
Structure (SMILES): Nc1ncnc2c1ncn2[C@@H]1O[C@H](COP(=O)(O)OP(=O)(O)OC[C@H]2NC[C@H](O)[C@@H]2O)[C@@H](O)[C@H]1O
